Results on 21 molecules are retold here after PubChem BioAssay (NCI).

Several values for one entry are separate records, joined by “and”; a condition that tells them apart may be missing. Equal entries are not always repeated.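 These data come from cells grown in 96-well plates and exposed to compound for 48 hours at five concentrations. The concentration for 50% growth inhibition is given as GI50. TGI denotes the concentration required for complete inhibition of growth.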

Among the test systems are SK-MEL-5 melanoma; HT29 colon; HL-60(TB) leukemia; HCC-2998 colon; HCT-15 colon; SNB-19 CNS; DU-145 prostate; UACC-62 melanoma; UO-31 renal; MDA-N.
What all share (test): growth of human tumour cells (NCI), 48 h

In the case of `CN1C(=O)C(O)CC1c1cccc(C(F)(F)F)c1` (stereo not drawn), the TGI in the assay with SK-MEL-5 melanoma, in the assay with HT29 colon, with HL-60(TB) leukemia, in the assay on HCC-2998 colon, with HCT-15 colon and in the assay with SNB-19 CNS was above 100 µM in each case. Moreover, the TGI in the assay with DU-145 prostate, with UACC-62 melanoma and in the assay with UO-31 renal was above 100 µM each time.

Turning to `CCOC(=O)C1CCCCN1CCc1c[nH]c2ccccc12` (stereo not drawn), the TGI in the assay with SK-MEL-5 melanoma, in the assay on HT29 colon, with MDA-N, in the assay on HCC-2998 colon, in the assay with HCT-15 colon and in the assay on SNB-19 CNS was above 100 µM throughout. For the same molecule, the TGI in the assay with DU-145 prostate, with UACC-62 melanoma and with UO-31 renal was above 100 µM each time.

As to `CC(=O)CC(=O)CCC(=O)O`, the TGI in the assay with HT29 colon, with HL-60(TB) leukemia, in the assay on HCC-2998 colon, with HCT-15 colon, in the assay on SNB-19 CNS and in the assay on UO-31 renal was above 100 µM each time.

Consider `COc1c(C)c(C/C=C(\C)CC/C=C(\C)CCC=C(C)C)c(OC)c(OC)c1OC`, for which the TGI in the assay on SK-MEL-5 melanoma, with HT29 colon, in the assay on MDA-N, with HCC-2998 colon, in the assay on HCT-15 colon and in the assay on SNB-19 CNS was above 100 µM in each case. In addition, the TGI in the assay with DU-145 prostate, in the assay with UACC-62 melanoma and in the assay with UO-31 renal was above 100 µM throughout.

As for `C=C1C(=O)O[C@H]2[C@H]3O[C@@H](C[C@@H]12)[C@](C)(O)CC[C@@H]1O[C@@]1(C)CCC[C@H]3C`, the TGI in the assay with SK-MEL-5 melanoma was 33.5 µM; with HT29 colon, 68.6 µM; with HL-60(TB) leukemia, above 100 µM; with HCC-2998 colon, 55.5 µM; in the assay with HCT-15 colon, 37.9 µM; in the assay on SNB-19 CNS it was above 100 µM. Besides, the TGI in the assay on DU-145 prostate was 33.4 µM; in the assay with UACC-62 melanoma, 33.2 µM; in the assay on UO-31 renal it was 69.3 µM.

With `NCCC1CN(C(=O)OCc2ccccc2)c2ccccc21` (stereo not drawn), the TGI in the assay on SK-MEL-5 melanoma was 24.7 µM; with HT29 colon it was 25.8 µM; in the assay on MDA-N, 26.6 µM; with HCC-2998 colon it was 33.9 µM; in the assay on HCT-15 colon, 14.5 µM; in the assay with SNB-19 CNS it was above 51.3 µM. For the same molecule, the TGI in the assay with DU-145 prostate stood at 48.9 µM; in the assay with UACC-62 melanoma it was 33.2 µM; in the assay on UO-31 renal it was 27.3 µM.

Consider `COc1ccccc1CNCCCCCCCCCCCCN1C(=O)c2ccc3c4c(ccc(c24)C1=O)C(=O)N(CCCCCCCCCCCCNCc1ccccc1OC)C3=O`, for which the GI50 is 48.9 µM with SK-MEL-5 melanoma; 2.01 µM in the assay on HT29 colon; above 50 µM in the assay on HL-60(TB) leukemia; above 50 µM in the assay with HCC-2998 colon; above 50 µM in the assay on HCT-15 colon; above 50 µM with SNB-19 CNS. Moreover, the GI50 is 2.91 µM in the assay with DU-145 prostate and above 50 µM in the assay with UACC-62 melanoma. The TGI in the assay with SK-MEL-5 melanoma, in the assay on HT29 colon, in the assay with HL-60(TB) leukemia, in the assay on HCC-2998 colon, in the assay on HCT-15 colon and in the assay on SNB-19 CNS was above 50 µM throughout. For the same molecule, the TGI in the assay with DU-145 prostate and with UACC-62 melanoma was above 50 µM throughout.

Consider `C#CCC1(C(=O)OCC)C(=O)c2ccccc2N(C)C1=O` (stereo not drawn), for which the TGI in the assay with SK-MEL-5 melanoma, in the assay on HT29 colon, with HL-60(TB) leukemia, with HCT-15 colon, in the assay with SNB-19 CNS and in the assay with UACC-62 melanoma was above 100 µM in each case. The molecule further displayed a TGI in the assay on UO-31 renal above 100 µM.

Consider `CC1CC/C(=C\c2ccc(Cl)cc2)c2nc(N)c(C#N)c(-c3ccc(Cl)cc3)c21` (stereo not drawn), for which the TGI in the assay on SK-MEL-5 melanoma was above 100 µM; in the assay with HT29 colon, above 100 µM; with HL-60(TB) leukemia, 15.4 µM; with MDA-N, above 100 µM; with HCC-2998 colon, above 100 µM; with HCT-15 colon, above 100 µM. Besides, the TGI in the assay with SNB-19 CNS was 69.5 µM; in the assay on UACC-62 melanoma, above 100 µM; with UO-31 renal, above 100 µM.

On to `C/C(Nc1ccc(Cl)cc1Cl)=C1/CCOC1=O`, for which the TGI is above 100 µM in the assay with SK-MEL-5 melanoma; above 100 µM in the assay on HT29 colon; above 100 µM in the assay on HL-60(TB) leukemia; above 100 µM in the assay with HCC-2998 colon; above 100 µM in the assay on HCT-15 colon; 67.1 µM in the assay on SNB-19 CNS. Also, the TGI in the assay with DU-145 prostate, in the assay with UACC-62 melanoma and in the assay with UO-31 renal was above 100 µM each time.

`CCOC(=O)c1cn(C)c(=S)n2c1nc1ccccc12`: the TGI with SK-MEL-5 melanoma, with HCC-2998 colon, in the assay with HCT-15 colon, in the assay with SNB-19 CNS, in the assay with DU-145 prostate and in the assay with UACC-62 melanoma was above 100 µM throughout. In the assay with UO-31 renal, this molecule displayed a TGI above 100 µM.

Turning to `O=C1C=CC(=O)c2c(O)c(N3CCN(CCOCCO)CC3)c(Cl)c(O)c21`, the GI50 with SK-MEL-5 melanoma is 688 nM [middle of 4 runs]; in the assay with HT29 colon, 0.42 µM and 0.592 µM and 0.288 µM; in the assay with HCC-2998 colon, 2.27 µM; in the assay with SNB-19 CNS, 13.4 µM [middle of 4 runs]. For the same molecule, the TGI in the assay with SK-MEL-5 melanoma is 1.81 µM [middle of 4 runs]; in the assay with HT29 colon it was 1.66 µM and 1.61 µM and 1.07 µM; in the assay on HCT-15 colon, 817 nM [middle of 4 runs]; in the assay on SNB-19 CNS, 26.5 µM and 18.4 µM and 26.1 µM; in the assay with DU-145 prostate, 3.31 µM [middle of 4 runs]; with UACC-62 melanoma, 3.01 µM [middle of 4 runs].

For the molecule `CSc1nc(NC(C)C)c2c(n1)Sc1nc3ccccc3n1C2O` (stereo not drawn), the TGI in the assay with HT29 colon was above 100 µM; with MDA-N it was 11.9 µM; in the assay with HCC-2998 colon it was above 100 µM; in the assay on HCT-15 colon it was above 100 µM; in the assay with UO-31 renal, 27.8 µM.

On to `CCC(CC(C)C)Nc1ccc(NC(CC)CC(C)C)cc1` (stereo not drawn), for which the GI50 in the assay on SK-MEL-5 melanoma was 15 µM; in the assay with HT29 colon, 15.1 µM; in the assay on HL-60(TB) leukemia, 10.6 µM; in the assay with HCC-2998 colon, 19.3 µM; in the assay on HCT-15 colon, 14.8 µM; with SNB-19 CNS it was 15.9 µM. In addition, the GI50 in the assay with DU-145 prostate is 26.5 µM; in the assay with UACC-62 melanoma, 10.6 µM; in the assay with UO-31 renal, 14.8 µM. Further, the TGI was determined as 28.2 µM in the assay on SK-MEL-5 melanoma; 30.5 µM with HT29 colon; 30.2 µM in the assay on HL-60(TB) leukemia; 36 µM in the assay on HCC-2998 colon; 27.9 µM in the assay on HCT-15 colon; 29.4 µM in the assay on SNB-19 CNS. For the same molecule, the TGI is 82.1 µM in the assay on DU-145 prostate, 24.3 µM in the assay with UACC-62 melanoma and 29.3 µM in the assay on UO-31 renal.

`O=c1cc(NCc2ccncc2)[nH]c(=O)[nH]1`: the TGI in the assay with SK-MEL-5 melanoma, in the assay with HT29 colon, in the assay with HL-60(TB) leukemia, in the assay with MDA-N, with HCC-2998 colon and in the assay with HCT-15 colon was above 100 µM each time. In addition, the TGI in the assay on SNB-19 CNS, with UACC-62 melanoma and in the assay with UO-31 renal was above 100 µM each time.

Consider `Nc1ncnc2c1ncn2Cc1cccc(CCl)c1`, for which the TGI in the assay on SK-MEL-5 melanoma was 30.4 µM; in the assay on HT29 colon, above 100 µM; with HL-60(TB) leukemia, above 100 µM; in the assay on HCT-15 colon, 41.7 µM; in the assay with DU-145 prostate, 27.1 µM; with UACC-62 melanoma, 25.8 µM. For the same molecule, the TGI in the assay on UO-31 renal amounted to 32.5 µM.

With `O=C(Nc1cccc(-n2cc(-c3ccncc3)c(-c3ccc(O)c(Cl)c3)n2)c1)c1cccc(C(F)(F)F)c1`, the GI50 with SK-MEL-5 melanoma is 2.38 µM; in the assay on HT29 colon it was 5.18 µM; with HL-60(TB) leukemia, 2.68 µM; in the assay on HCC-2998 colon it was 4.37 µM; in the assay with HCT-15 colon, 1.98 µM; with SNB-19 CNS, 9.36 µM. The GI50 is 6.52 µM in the assay with DU-145 prostate, 6.52 µM in the assay with UACC-62 melanoma and 4.29 µM in the assay on UO-31 renal. Besides, the TGI with SK-MEL-5 melanoma is 16.2 µM; with HT29 colon it was above 100 µM; with HL-60(TB) leukemia it was 6.76 µM; in the assay with HCC-2998 colon, above 100 µM; in the assay with HCT-15 colon, above 100 µM; in the assay on SNB-19 CNS, above 100 µM. Moreover, the TGI in the assay with DU-145 prostate, in the assay on UACC-62 melanoma and with UO-31 renal was above 100 µM throughout.

In the case of `Cc1csc(NC(=NCCN2CCOCC2)Nc2nc(C)cs2)n1`, the TGI in the assay on SK-MEL-5 melanoma, with HT29 colon, with HL-60(TB) leukemia, in the assay on HCC-2998 colon, with HCT-15 colon and in the assay with SNB-19 CNS was above 100 µM throughout. The TGI in the assay with UACC-62 melanoma and in the assay with UO-31 renal was above 100 µM each time.

Regarding `CC1(C2CCC3(C)OC3C2)CO1` (stereo not drawn), the TGI in the assay with SK-MEL-5 melanoma, in the assay with HT29 colon, in the assay with HL-60(TB) leukemia, with HCC-2998 colon, with SNB-19 CNS and in the assay with UACC-62 melanoma was above 100 µM throughout. For the same molecule, the TGI in the assay on UO-31 renal is above 100 µM.

As for `Cc1[nH]c(=O)[nH]c(=S)c1C(=O)Nc1cccc2cc3ccccc3cc12`, the TGI in the assay on SK-MEL-5 melanoma, in the assay with HT29 colon, in the assay on HL-60(TB) leukemia, in the assay on HCC-2998 colon, in the assay with HCT-15 colon and in the assay with SNB-19 CNS was above 100 µM each time. The TGI with DU-145 prostate, in the assay with UACC-62 melanoma and with UO-31 renal was above 100 µM in each case.

On to `CC(=O)O[C@H]1CC[C@@]2(C)[C@H](CC[C@@H]3[C@@H]2CC[C@]2(C)[C@@H](c4ccc(=O)oc4)C[C@H]4O[C@]342)C1`, for which the TGI in the assay with SK-MEL-5 melanoma is 1.51 µM; in the assay with HT29 colon, 12.7 µM; in the assay with HL-60(TB) leukemia, 0.592 µM; in the assay with HCC-2998 colon, 8.88 µM; in the assay with HCT-15 colon, 29.5 µM; in the assay on SNB-19 CNS, 9.36 µM. For the same molecule, the TGI with UACC-62 melanoma is 3.46 µM; with UO-31 renal, 3.18 µM.
